EC50 data for 33 compounds are collected here from patent US8088806B2 (Achillion Pharmaceuticals, Inc., priority 2005, dated 2012).

Each structure is given as a SMILES string.

The first test concerns HCV replicon. Briefly: Replicon based assay of HCV replication inhibition (NPT ELISA). Type of test: cell-based, Hepatitis C virus. As to conditions: Hepatitis C virus, Huh-7, 72 h, Table I; Huh-7 HCV replicon-containing cells, three days; read-out: Activity. The protocol:
Compounds claimed herein are tested for the ability to inhibit viral replication of the Hepatitis C replicon in cultured cells in which the HCV replicon construct has been incorporated. The HCV replicon system was described by Bartenschlager, et. al (Science, 285, pp. 110-113 (1999)). The replicon system is predictive of in vivo anti-HCV activity; compounds that are active in humans uniformly evidence activity in the replicon assay.
In this assay HCV replicon containing cells are treated with different concentrations of the test compound to ascertain the ability of the test compound to suppress replication of the HCV replicon. As a positive control, HCV replicon-containing cells are treated with different concentrations of interferon alpha, a known inhibitor of HCV replication. The replicon assay system includes Neomycin Phosphotransferase (NPT) as a component of the replicon itself in order to detect the transcription of replicon gene products in the host cell. Cells in which the HCV replicon is actively replicating have high levels of NPT; the level of NPT is proportional to HCV replication. […] The NPT level of each sample is measured using a captured ELISA.
A protocol for testing compounds for the ability to inhibit viral replication of the Hepatitis C replicon cultured cells in which the replicon construct has been incorporated, follows.
The HCV replicon contains, 5′-3′, the HCV-IRES, the neomycin phosphotransferase (neo) gene, the IRES of encephalomyocarditis virus, which directs translation of HCV sequences NS3 to NS5B, and the 3′-NTR. The sequence of the HCV replicon has been deposited in GenBank (Accession no. AJ242652).
The replicon is transfected into Huh-7 cells using standard methods such as electroporation.
The equipment and materials include, but are not limited to, Huh-7 HCV replicon-containing cells, maintenance media (DMEM (Dulbecco's modified Eagle media) supplemented with 10% FBS, L-glutamine, non-essential amino acids, penicillin (100 units/ml), streptomycin (100 micrograms/ml), and 500 micrograms/ml of Geneticin (G418), screening media (DMEM supplemented with 10% FBS, L-glutamine, non-essential amino acids, penicillin (100 units/ml) and streptomycin (100 micrograms/ml)), 96 well tissue culture plates (flat bottom), 96 well plates (U bottom for drug dilution), Interferon alpha for positive control, fixation reagent (such as methanol: acetone), primary antibody (rabbit anti-NPTII), secondary antibody: Eu-N1l, and enhancement solution.
The cells are then seeded onto 96-well plates at a density of 6000-7500 cells/100 microliters/well (6-7.5×10^5 cells/10 ml/plate). The plates are then incubated at 37° C. in a 5% CO2 incubator.
HCV replicon-containing cells are rinsed with once PBS once; 2 mls of trypsin are then added. Cells are incubated at 37° C. in a 5% CO2 incubator for 3-5 minutes. 10 mls of complete medium is added to stop the reaction. Cells are blown gently, put into a 15 ml tube, and spun at 1200 rpm for four minutes. The trypsin/medium solution is removed and 5 mls of medium (500 ml DMEM (high glucose)) from BRL catalog #12430-054; 50 mls 10% FBS, 5% Geneticin G418 (50 mg/ml, BRL catalog #10131-035), 5 ml MEM non-essential amino acids (100×BRL #11140-050) and 5 ml pen-strep (BRL # 15140-148) is added. The cells and media are mixed carefully
Cells are plated with screening medium (500 ml DMEM (BRL #21063-029), 50 ml FBS (BRL #10082-147) and 5 ml MEM non-essential amino acid (BRL #11140-050) at 6000-7500 cells/100 μl/well of 96 well plate (6-7.5×10^5 cells/10 ml/plate). Plates are placed into 37° C. 5% CO2 incubator overnight.
The following morning, drugs (test compounds or interferon alpha) are diluted in 96 well U bottom plates with media or DMSO/media, depending on the final concentration chosen for screening. Generally for 6 concentrations of each test compounds ranging from 10 micromolar to 0.03 micromolar are applied. […]
Background: In antiviral work, replicon cells carry a viral genome segment that copies itself.
With `CCCCCOc1ccc(Nc2nccs2)cc1C(F)(F)F` [compound 1, N-(3-(trifluoromethyl)-4-(pentyloxy)phenyl)thiazol-2-amine], the EC50 is < 1000 nM.

With `CCCCCOc1ccc(Nc2nc(-c3ccc(F)cc3)cs2)cc1C(F)(F)F` [compound 2, N-(3-(trifluoromethyl)-4-(pentyloxy)phenyl)-4-(4-fluorophenyl)thiazol-2-amine], the EC50 is < 1000 nM.

In the case of `CCCCCOc1ccc(Nc2nc(-c3ccc(OC(F)F)cc3)cs2)cc1C(F)(F)F` [compound 4, 4-(4-(difluoromethoxy)phenyl)-N-(3-(trifluoromethyl)-4-(pentyloxy)phenyl)thiazol-2-amine], the EC50 is < 1000 nM.

With `CCCCCOc1ccc(Nc2nc(C(Cc3ccccc3)NS(=O)(=O)c3ccc(C)cc3)cs2)cc1C(F)(F)F` (stereo not drawn) [compound 6, N-(3-(trifluoromethyl)-4-(pentyloxy)phenyl)-4-(2-phenyl-1-(tosylamino)ethyl)thiazol-2-amine], the EC50 lay in the range of 1000 to 10000 nM.

For `CCCCCOc1ccc(Nc2nc(-c3cccnc3)cs2)cc1C(F)(F)F` [compound 7, N-(3-(trifluorometbyl)-4-(pentyloxy)phenyl)-4-(pyridin-3-yl)thiazol-2-amine], the EC50 was < 1000 nM.

Turning to `CCCCCOc1ccc(Nc2nc(-c3ccc(N4CCCC4)cc3)cs2)cc1C(F)(F)F` [compound 8, N-(3-(trifluoromethyl)-4-(pentyloxy)phenyl)-4-(4-(pyrrolidin-1-yl)phenyl)thiazol-2-amine], the EC50 is < 1000 nM.

For the compound `CCCCCOc1ccc(Nc2ncc(Br)s2)cc1C(F)(F)F` [compound 9, 5-bromo-N-(3-(trifluoromethyl)-4-(pentyloxy)phenyl)thiazol-2-amine], the EC50 was < 1000 nM.

As to `CCCCCOc1ccc(Nc2nc(C(=O)O)cs2)cc1C(F)(F)F` [compound 10, 2-(3-(trifluoromethyl)-4-(pentyloxy)phenylamino)thiazole-4-carboxylic acid], the EC50 was > 10000 nM.

With `CCCCCOc1ccc(Nc2nc(C(=O)Nc3ccc(Cl)cc3)cs2)cc1C(F)(F)F` [compound 11, 2-(3-(trifluoromethyl)-4-(pentyloxy)phenylamino)-N-(4-chlorophenyl)thiazole-4-carboxamide], the EC50 is > 10000 nM.

With `CCCCCOc1ccc(Nc2nc(-c3ccc(F)cc3)c(C)s2)cc1C(F)(F)F` [compound 12, N-(3-(trifluoromethyl)-4-(pentyloxy)phenyl)-4-(4-fluorophenyl)-5-methylthiazol-2-amine], the EC50 was < 1000 nM.

For the compound `CCCCCOc1ccc(Nc2csc(-c3cccnc3)n2)cc1C(F)(F)F` [compound 13, N-(3-(trifluoromethyl)-4-(pentyloxy)phenyl)-2-(pyridin-3-yl)thiazol-4-amine], the EC50 is > 10000 nM.

Regarding `CCCCCOc1ccc(Nc2nc(C(=O)Nc3cccnc3)cs2)cc1C(F)(F)F` [compound 14, 2-(3-(trifluoromethyl)-4-(pentyloxy)phenylamino)-N-(pyridin-3-yl)thiazole-4-carboxamide], the EC50 was < 1000 nM.

Take `CCCCCOc1ccc(Nc2nc(C(=O)Nc3ccc(C#N)cc3)cs2)cc1C(F)(F)F` [compound 15, 2-(3-(trifluoromethyl)-4-(pentyloxy)phenylamino)-N-(4-cyanophenyl)thiazole-4-carboxamide]: the EC50 is > 10000 nM.

Consider `CCCCCOc1ccc(Nc2nc(C(=O)Nc3ccc(OC)cc3)cs2)cc1C(F)(F)F` [compound 16, 2-(3-(trifluoromethyl)-4-(pentyloxy)phenylamino)-N-(4-methoxyphenyl)thiazole-4-carboxamide], for which the EC50 was > 10000 nM.

Consider `CCCCCOc1ccc(Nc2nc(C(=O)Nc3ccc(C(C)(C)C)cc3)cs2)cc1C(F)(F)F` [compound 17, 2-(3-(trifluoromethyl)-4-(pentyloxy)phenylamino)-N-(4-tert-butylphenyl)thiazole-4-carboxamide], for which the EC50 was > 10000 nM.

Regarding `CCCCCOc1ccc(Nc2nc(C(N)=O)cs2)cc1C(F)(F)F` [compound 18, 2-(3-(trifluoromethyl)-4-(pentyloxy)phenylamino)thiazole-4-carboxamide], the EC50 is < 1000 nM.

Turning to `CCCCCc1ccc(Nc2nc(-c3ccc(F)cc3)cs2)cc1` [compound 19, 4-(4-fluorophenyl)-N-(4-pentylphenyl)thiazol-2-amine], the EC50 is < 1000 nM.

With `CCCCCc1ccc(Nc2nc(-c3ccc(Cl)cc3)cs2)cc1` [compound 20, 4-(4-chlorophenyl)-N-(4-pentylphenyl)thiazol-2-amine], the EC50 is < 1000 nM.

Consider `CCCCCOc1ccc(Nc2nc(-c3ccc(F)cc3)cs2)cc1` [compound 21, 4-(4-fluorophenyl)-N-(4-(pentyloxy)phenyl)thiazol-2-amine], for which the EC50 is < 1000 nM.

`CCCCCc1ccc(Nc2nc(-c3ccc(Cl)c(Cl)c3)cs2)cc1` [compound 22, 4-(3,4-dichlorophenyl)-N-(4-pentylphenyl)thiazol-2-amine]: the EC50 is < 1000 nM.

As to `CCCCCOc1ccc(Nc2nc(-c3ccc(Cl)c(Cl)c3)cs2)cc1` [compound 24, 4-(3,4-dichlorophenyl)-N-(4-(pentyloxy)phenyl)thiazol-2-amine], the EC50 was < 1000 nM.

In the case of `CCCCCOc1ccc(Nc2nc(-c3ccc(Cl)cc3)cs2)cc1` [compound 26, 4-(4-chlorophenyl)-N-(4-(pentyloxy)phenyl)thiazol-2-amine], the EC50 was < 1000 nM.

As for `Fc1ccc(-c2csc(Nc3cccc(OCc4ccccc4)c3)n2)cc1` [compound 27, N-(3-(benzyloxy)phenyl)-4-(4-fluorophenyl)thiazol-2-amine], the EC50 is < 1000 nM.

Consider `Clc1ccc(-c2csc(Nc3cccc(OCc4ccccc4)c3)n2)cc1Cl` [compound 28, N-(3-(benzyloxy)phenyl)-4-(3,4-dichlorophenyl)thiazol-2-amine], for which the EC50 is < 1000 nM.

As to `Clc1ccc(-c2csc(Nc3cccc(OCc4ccccc4)c3)n2)cc1` [compound 30, N-(3-(benzyloxy)phenyl)-4-(4-chlorophenyl)thiazol-2-amine], the EC50 was < 1000 nM.

Consider `Fc1ccc(-c2csc(Nc3cccc(Oc4ccccc4)c3)n2)cc1` [compound 31, 4-(4-fluorophenyl)-N-(3-phenoxyphenyl)thiazol-2-amine], for which the EC50 was < 1000 nM.

As for `Clc1ccc(-c2csc(Nc3cccc(Oc4ccccc4)c3)n2)cc1Cl` [compound 32, 4-(3,4-dichlorophenyl)-N-(3-phenoxyphenyl)thiazol-2-amine], the EC50 was < 1000 nM.

Take `Clc1ccc(-c2csc(Nc3cccc(Oc4ccccc4)c3)n2)cc1` [compound 34, 4-(4-chlorophenyl)-N-(3-phenoxyphenyl)thiazol-2-amine]: the EC50 was < 1000 nM.

Consider `Fc1ccc(-c2csc(Nc3cccc(Cc4ccccc4)c3)n2)cc1` [compound 35, N-(3-benzylphenyl)-4-(4-fluorophenyl)thiazol-2-amine], for which the EC50 was > 10000 nM.

Take `Clc1ccc(-c2csc(Nc3cccc(Cc4ccccc4)c3)n2)cc1Cl` [compound 36, N-(3-benzylphenyl)-4-(3,4-dichlorophenyl)thiazol-2-amine]: the EC50 is < 1000 nM.

Take `Clc1ccc(-c2csc(Nc3cccc(Cc4ccccc4)c3)n2)cc1` [compound 38, N-(3-benzylphenyl)-4-(4-chlorophenyl)thiazol-2-amine]: the EC50 is < 1000 nM.

With `Fc1ccc(-c2csc(Nc3ccc(Cc4ccccc4)cc3)n2)cc1` [compound 39, N-(4-benzylphenyl)-4-(4-fluorophenyl)thiazol-2-amine], the EC50 was > 10000 nM.

Staying with this test, now noted: Table I; Huh-7 HCV replicon-containing cells, three days; read-out: Activity.
Turning to `CCCCCOc1ccc(Nc2nc(-c3ccc(Cl)cc3)cs2)cc1C(F)(F)F` [compound 3], the EC50 is < 1000 nM.
